US10220053B2, “Methods and compositions for modulating cancer stem cells” (University of Canberra, priority 2013, dated 2019)
“Also recorded” adds a separate entry of the source.

Experiments:
MDA-MB-231 cells [1] = test: In vivo murine xenograft model, tumor size; design: species or system BALB/c female nude mice
Protocol: (§1) To monitor the effect of LSD1 inhibitors in vivo on tumor recurrence, in vivo murine xenograft model of breast cancer recurrence was used. The MDA-MB 231 cell line model, which is one of the most robust and well-established models was used in 6 weeks old BALB/c female nude mice. 5×10^6 MDA MB 231 cells were injected in the mammary fat pad of each mouse. […] Once the tumors reach 50 mm^3 volume size (determined by caliper measurement), treatments were initiated. Mice were monitored until tumors reach 500 mm^3 and sacrificed for collection of tumors. Each treatment group consisted 14 mice each (5 mice for tumor growth curve+3 mice each for tumor collection at 3 time points-treatment start day-week 0, chemotherapy tumor reduction-approx. week 4 and until tumor reach 500 mm^3 approx. week 7). Tumor volumes were measured every week and three mice from each group were sacrificed for IHC, FACS, and RNA extraction at above mentioned three time points.
5. Mice were then injected with 50 μL of the Matrigel™+5×10^6 cell suspension in PBS using 26″ needles and isoflurane as an anesthetic. Each 50 μL of the mixture contains 2×10^6 MDA-MB-231 cells.
7. Measurements for tumor volume began at day 7 post injection of MDA-MB-231. Then the tumor volumes were measured daily till 15 May 2014.
Treatment of mice started at day 16 post injection of MDA-MB-231, where tumors roughly reached a volume of 50 mm^3.
Group B: 4 mg/kg of docetaxel (11 mice)
Group C: 100 mg/kg of pargyline (11 mice)
Group D: 4 mg/kg of docetaxel+100 mg/kg of pargyline (11 mice)

MDA-MB-231 cells [2] = test: In vivo murine xenograft model, CSC subpopulation of tumors (FACS, CD44 mRNA); design: species or system BALB/c female nude mice; conditions: pargyline along with docetaxel
Protocol: as §1
At week 7 post treatment, the remaining tumor samples were collected for flow cytometry with CD44, CD24 and Hoechst staining. Remaining sample was used for RNA extraction.
1. Tumors were collected in 5 mL of DMEM supplemented with 2.5% FCS in 15 mL tubes.
8. A total number of 2×10^5 cells were stained for CD44-APC, CD24-PE and Hoechst. […]

MDA-MB 231 cells [3] = test: FACS analysis of CD44high CD24low CSC subpopulation, Basal/metastatic model; format: cell-based, human; conditions: NCD38 5 μM, FIGS. 7A and B
Protocol: (§2) Cells from each well/flask were harvested by means of trypsin treatment followed by two washes with PBS. Washed cells then re-suspended in an antibody cocktail consisting anti-CD44-APC, anti-CD24-PE antibodies (details in Table 5) and Hoechst 33258 dye (final dilution of 1:1000) (Invitrogen, Carlsbad, Calif.) in 1% FCS-PBS solution. Cells re-suspended in antibody cocktail were incubated for 20 minutes at 4° C. Cells were next washed twice with PBS and re-suspended in 1% FCS-PBS solution (volume based on cell number) and kept on ice until analyzed by FACS. Forward scatter (FSC) and side scatter parameters were selected with FITC fluorochrome excited by 488 nm argonion laser, PE fluorochrome excited by 488 nm and Hoechst fluorochrome excited by 350 nm helium-cadmium UV laser.
(§3) Flow Cytometry data was produced using either BD FACS LSR Flow Cytometer (Becton Dickinson Biosciences) or BD FACS Aria™ II Flow Cytometer (Becton Dickinson Biosciences) and analyzed using the data acquisition software CellQuest Pro (Becton Dickinson Biosciences) and FlowJo (Tree Star Inc., Ashland, Oreg.) software at the MCRF facility, JCSMR, ANU, Canberra, Australia. Single colour controls were used to set compensation parameters. Isotype controls were used for all corresponding primary antibodies in each experiment. […]

MCF-7 cells [4] = test: FACS analysis of CD44high CD24low CSC-like subpopulation, MCF-IM model (PMA-stimulated MCF-7); format: cell-based, human; conditions: NCD38 5 μM for 17 hr prior to PMA 0.65 ng/μl for 60 hours, FIGS. 6A and B
Protocol: MCF-7 cells were seeded one day before stimulation at a set density according to the experimental demand. Potential inducers of EMT were tested including Phorbol 12-Myristate 13-acetate (PMA) (Sigma-Aldrich, St. Louis, Mo.), and TGF β (R&D systems, Minneapolis, Minn.) at various concentrations and incubation length as specified in Table 6.
as §2, with “Forward scatter (FSC) and side scatter parameters were selected with FITC fluorochrome excited by 488 nm argonion laser, PE fluorochrome excited by 488 nm and Hoechst fluorochrome excited by 350 nm helium-cadmium UV laser.” left out
as §3, with “Australia.” for “Australia. Single colour controls were used to set compensation parameters. Isotype controls were used for all corresponding primary antibodies in each experiment.”

MCF-7 cells [5] = test: Mammosphere assay; format: cell-based, human; conditions: MCF-IM model, NCD38 5 μM for 17 hr prior to PMA 0.65 ng/ml for 6 days, mammospheres larger than 60 μm counted
Protocol: The following mammosphere culture media components were purchased from StemCell Technologies Inc., BC, Canada: Mammocult Basal medium (Human) (catalogue number-05621), Mammocult Proliferation Supplements (Human) (catalogue number-05622), heparin (catalogue number-07904) and hydrocortisone (catalogue number-[…]). Hydrocortisone powder was freshly dissolved into mammocult basal medium to get 10^−4M solution on the day of experiment. 50 mL of Mammocult complete media was then prepared by addition of 45 mL Mammocult basal medium, 5 mL mammocult proliferation supplements, 100 μL of the 0.2% heparin stock, 500 μL of 10^−4M stock of hydrocortisone and 50 μL of the PNS. Mammocult complete media was either used on same day or stored for not more than 7 days at 4° C.
MCF-7 cells were grown in a 175 cm^2 cell culture flask and harvested using a cell scraper (Zellschaber, Switzerland) or FACS sorted as specified below. Importantly trypsin treatment was never used for harvesting cells as it interferes with the mammosphere assay. Harvested cells were then re-suspended in 1 mL mammocult complete media and centrifuged at 500×g for 3 minutes at 20° C. The cell pellet was then re-suspended in 1 mL mammocult complete media before counting the cells on the Vi-CELL counter. […] Mammospheres larger than 60 μm were counted per well on day 7 and pictures were taken with an Olympus microscope. […]

MDA-MB 231 cells [6] = test: Phase contrast microscopy of EMT/MET, Basal/metastatic model; format: cell-based, human; conditions: NCD38 5 μM, FIG. 7C
Protocol: Phase contrast microscopy was utilized for EMT and wound healing assays under 10× or 20× magnification of Olympus Fluorescence 1×71 microscope. Images were captured and analyzed as described above except that wound healing assay pictures were also analyzed by Image J software (Free software in Public domain developed by NIH).

Row | SMILES | tumor size (MDA-MB-231 cells [1]; pargyline 100 mg/kg in combination with docetaxel 4 mg/kg, mice xenograft, FIG. 8 (week four), FIG. 9) | tumor volume (MDA-MB-231 cells [1]; pargyline in combination with docetaxel, after seven weeks of treatment initiation, FIG. 9B) | tumor weight (MDA-MB-231 cells [1]; pargyline in combination with docetaxel, after seven weeks of treatment, FIG. 9A) | CSC subpopulation measured by transcript (CD44 mRNA expression of dissected tumors) (MDA-MB-231 cells [2]; real-time PCR, FIG. 10B) | CSC subpopulation of tumors measured by FACS (MDA-MB-231 cells [2]; seven weeks of treatment, FIG. 10A) | CSC formation (CD44high CD24low CSC-like subpopulation) by FACS (MDA-MB 231 cells [3]) | CSC formation (CD44high CD24low CSC-like subpopulation) by FACS (MDA-MB 231 cells [3]; listed as NCD-38) | CSC formation (CD44high CD24low CSC-like subpopulation) monitored by FACS (MCF-7 cells [4]) | CSC formation (CD44high CD24low CSC-like subpopulation) monitored by FACS (MCF-7 cells [4]; listed as NCD-38) | CSC formation monitored by mammosphere assay (MCF-7 cells [5]) | CSC formation monitored by mammosphere assay (MCF-7 cells [5]; listed as NCD-38) | mesenchymal to epithelial transition / EMT (phase contrast microscopy) (MDA-MB 231 cells [6]) | mesenchymal to epithelial transition / EMT (phase contrast microscopy) (MDA-MB 231 cells [6]; listed as NCD-38)
1 | C#CCN(C)Cc1ccccc1 [pargyline] | reduced tumor size; also recorded: reduces size of tumor | reduces volume and weight of tumor | reduces volume and weight of tumor | reduced CSC subpopulation | reduced CSC subpopulation; also recorded: reduces cancer stem cells | – | – | – | – | – | – | – | –
2 | O=C(N[C@@H](CCCCN[C@@H]1C[C@H]1c1ccccc1)C(=O)NCc1cccc(Cl)c1)c1ccc(-c2ccccc2)cc1.O=C(O)C(F)(F)F [NCD38] | – | – | – | – | – | inhibits CD44 high CD24 low-CSC-like subpopulation | decrease of CSC formation | inhibits CD44 high CD24 low-CSC-like subpopulation | inhibition CSC formation | reduce mammosphere formation | inhibition CSC formation | inhibit EMT | conversion of mesenchymal cells in to epithelial cells
